In ChEMBL document CHEMBL1201862, “PubChem BioAssay data set” (2004):
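Growth conditions: 96-well plates. Treatment: test compound, 48 hours, 5 concentrations. Analysis: linear interpolation between bracketing concentrations; unreached endpoints set to highest concentration. Here, GI50 denotes the concentration required for 50% inhibition of growth.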 The source made the active and inactive calls. Cut-off read from the data, not from the text of the source: active = GI50 up to about 1.1 µM and inactive = higher.

Key:
Assay in all cases: NCI-60 cell line screen, 48 h
[1] = system: 786-0
[2] = system: OVCAR-3
[3] = system: Malme-3M
[4] = system: SK-MEL-5
[5] = system: SW-620
[6] = system: SN12C
[7] = system: A549
[8] = system: COLO 205
[9] = system: IGROV-1
[10] = system: TK-10
[11] = system: HOP-62
[12] = system: RXF 393
[13] = system: CCRF-CEM
[14] = system: SK-OV-3
[15] = system: RPMI-8226
[16] = system: NCI-H226
[17] = system: EKVX
[18] = system: A498

Row | Compound | GI50 [1] | GI50 [2] | GI50 [3] | GI50 [4] | GI50 [5] | GI50 [6] | GI50 [7] | GI50 [8] | GI50 [9] | GI50 [10] | GI50 [11] | GI50 [12] | GI50 [13] | GI50 [14] | GI50 [15] | GI50 [16] | GI50 [17] | GI50 [18]
1 | CC(=O)OC(CCC1(C)OC1COc1ccc(CCNC(=O)c2ccccc2)cc1)C(C)(C)OC(C)=O (centres undefined) | > 100 µM (inactive) | 10.3 µM (inactive) | 15.3 µM (inactive) | 1.1 µM (active) | > 100 µM (inactive) | > 100 µM (inactive) | 13.1 µM (inactive) | 19.5 µM (inactive) | 39.5 µM (inactive) | 49.3 µM (inactive) | 15.5 µM (inactive) | 16.2 µM (inactive) | 7.18 µM (inactive) | > 100 µM (inactive) | 18.6 µM (inactive) | > 100 µM (inactive) | – | –
2 | NC(CCCNc1cccc(O)c1)C(=O)O (centres undefined) | > 100 µM (inactive) | > 100 µM (inactive) | > 100 µM (inactive) | > 100 µM (inactive) | > 100 µM (inactive) | > 100 µM (inactive) | > 100 µM (inactive) | > 100 µM (inactive) | – | > 100 µM (inactive) | > 100 µM (inactive) | > 100 µM (inactive) | > 100 µM (inactive) | > 100 µM (inactive) | > 100 µM (inactive) | > 100 µM (inactive) | > 100 µM (inactive) | > 100 µM (inactive)
3 | O=c1ccn([C@@H]2C[C@H](CO)C[S+]([O-])C2)c(=O)[nH]1 (some centres undefined) | > 100 µM (inactive) | > 100 µM (inactive) | > 100 µM (inactive) | > 100 µM (inactive) | > 100 µM (inactive) | > 100 µM (inactive) | > 100 µM (inactive) | > 100 µM (inactive) | > 100 µM (inactive) | > 100 µM (inactive) | > 100 µM (inactive) | – | > 100 µM (inactive) | > 100 µM (inactive) | > 100 µM (inactive) | > 100 µM (inactive) | > 100 µM (inactive) | > 100 µM (inactive)
4 | CCCC1C(=O)CCc2c(OC)ccc(OC)c21 (centres undefined) | > 100 µM (inactive) | 73.6 µM (inactive) | > 100 µM (inactive) | > 100 µM (inactive) | > 100 µM (inactive) | > 100 µM (inactive) | > 100 µM (inactive) | > 100 µM (inactive) | > 100 µM (inactive) | > 100 µM (inactive) | > 100 µM (inactive) | > 100 µM (inactive) | 72.3 µM (inactive) | > 100 µM (inactive) | 65.9 µM (inactive) | – | > 100 µM (inactive) | > 100 µM (inactive)
5 | COc1cc([C@@H]2c3cc4c(cc3C(N)C3COC(=O)[C@@H]32)OCO4)cc(OC)c1O (some centres undefined) | 0.537 µM (active) | – | – | 0.244 µM (active) | 0.301 µM (active) | 0.445 µM (active) | 0.337 µM (active) | 0.13 µM (active) | 0.515 µM (active) | 0.401 µM (active) | 2.88 µM (inactive) | 0.049 µM (active) | 0.339 µM (active) | – | 0.277 µM (active) | 0.292 µM (active) | – | –
6 | CC1CCN(CCC(=O)CC(c2ccccc2)c2c(O)c3ccccc3oc2=O)CC1 (centres undefined) | > 100 µM (inactive) | > 100 µM (inactive) | – | > 100 µM (inactive) | > 100 µM (inactive) | – | > 100 µM (inactive) | > 100 µM (inactive) | > 100 µM (inactive) | > 100 µM (inactive) | > 100 µM (inactive) | > 100 µM (inactive) | > 100 µM (inactive) | > 100 µM (inactive) | > 100 µM (inactive) | 80 µM (inactive) | > 100 µM (inactive) | > 100 µM (inactive)
7 | C=C[C@@]1(O)CCCC2=C(C(=O)OCC)CC[C@]21C | > 100 µM (inactive) | > 100 µM (inactive) | > 100 µM (inactive) | 38.1 µM (inactive) | 54.7 µM (inactive) | > 100 µM (inactive) | > 100 µM (inactive) | > 100 µM (inactive) | > 100 µM (inactive) | > 100 µM (inactive) | – | > 100 µM (inactive) | 44.7 µM (inactive) | > 100 µM (inactive) | > 100 µM (inactive) | > 100 µM (inactive) | > 100 µM (inactive) | –
8 | COc1cccc2c1C(=O)c1c(O)c3c(c(O)c1C2=O)C[C@@](O)(C(C)=O)C[C@@H]3OC1CC([N+]([O-])(Cc2ccccc2)Cc2ccccc2)C(O)C(C)O1 (some centres undefined) | 1.44 µM (inactive) | 1.73 µM (inactive) | – | 1.35 µM (inactive) | 1 µM (active) | 1.06 µM (active) | 1.29 µM (inactive) | – | 1.36 µM (inactive) | 1.6 µM (inactive) | 1.56 µM (inactive) | 1.21 µM (inactive) | 0.399 µM (active) | 4.2 µM (inactive) | 1.54 µM (inactive) | – | 1.8 µM (inactive) | 2.46 µM (inactive)
9 | COc1cc2c(cc1O)[C@@]1(Cc3ccc(OC)c(OC)c3)CCC(=O)N1CC2 | > 100 µM (inactive) | > 100 µM (inactive) | 68.4 µM (inactive) | > 100 µM (inactive) | > 10 µM (inactive) | > 100 µM (inactive) | > 100 µM (inactive) | > 100 µM (inactive) | > 100 µM (inactive) | > 100 µM (inactive) | > 100 µM (inactive) | > 100 µM (inactive) | > 100 µM (inactive) | – | > 100 µM (inactive) | > 100 µM (inactive) | > 100 µM (inactive) | > 100 µM (inactive)
10 | O=C1CCCN(c2ccccc2)N1 | > 100 µM (inactive) | > 100 µM (inactive) | > 100 µM (inactive) | > 100 µM (inactive) | > 100 µM (inactive) | > 100 µM (inactive) | > 100 µM (inactive) | – | > 100 µM (inactive) | – | > 100 µM (inactive) | > 100 µM (inactive) | – | > 100 µM (inactive) | > 100 µM (inactive) | > 100 µM (inactive) | > 100 µM (inactive) | > 100 µM (inactive)
11 | CC1(C)C(c2ccccc2)=NN(O)c2ccccc21 | > 100 µM (inactive) | > 100 µM (inactive) | > 100 µM (inactive) | > 100 µM (inactive) | > 100 µM (inactive) | – | > 100 µM (inactive) | > 100 µM (inactive) | > 100 µM (inactive) | > 100 µM (inactive) | > 100 µM (inactive) | > 100 µM (inactive) | > 100 µM (inactive) | > 100 µM (inactive) | > 100 µM (inactive) | > 100 µM (inactive) | > 100 µM (inactive) | > 100 µM (inactive)
12 | Cc1ccc(/C=C/C(=O)CCN(C)C)cc1 | 17.9 µM (inactive) | 20.3 µM (inactive) | 20.7 µM (inactive) | 19.4 µM (inactive) | 16.6 µM (inactive) | 16.9 µM (inactive) | 20.7 µM (inactive) | 16 µM (inactive) | 20.8 µM (inactive) | 16.5 µM (inactive) | 54.5 µM (inactive) | 23.1 µM (inactive) | 24.7 µM (inactive) | 45 µM (inactive) | 19.3 µM (inactive) | 19.2 µM (inactive) | – | > 100 µM (inactive)
13 | C/C(=N/O)C1CC=C(S(=O)(=O)c2ccccc2)C1 (centres undefined) | > 100 µM (inactive) | > 100 µM (inactive) | > 100 µM (inactive) | – | > 100 µM (inactive) | > 100 µM (inactive) | > 100 µM (inactive) | > 100 µM (inactive) | > 100 µM (inactive) | > 100 µM (inactive) | > 100 µM (inactive) | > 100 µM (inactive) | > 100 µM (inactive) | > 100 µM (inactive) | > 100 µM (inactive) | > 100 µM (inactive) | – | –
14 | COc1cc(C)c(O)c(C(=O)O)c1 | > 100 µM (inactive) | > 100 µM (inactive) | > 100 µM (inactive) | > 100 µM (inactive) | > 100 µM (inactive) | > 100 µM (inactive) | > 100 µM (inactive) | > 100 µM (inactive) | > 100 µM (inactive) | > 100 µM (inactive) | > 100 µM (inactive) | > 100 µM (inactive) | > 100 µM (inactive) | > 100 µM (inactive) | – | > 100 µM (inactive) | – | > 100 µM (inactive)
15 | N#C/C(=C\c1ccc(CP(=O)(O)O)cc1)C(N)=O | > 100 µM (inactive) | > 100 µM (inactive) | > 100 µM (inactive) | > 100 µM (inactive) | > 100 µM (inactive) | > 100 µM (inactive) | > 100 µM (inactive) | > 100 µM (inactive) | > 100 µM (inactive) | > 100 µM (inactive) | > 100 µM (inactive) | – | > 100 µM (inactive) | > 100 µM (inactive) | > 100 µM (inactive) | > 100 µM (inactive) | > 100 µM (inactive) | > 100 µM (inactive)
16 | O=C1C(=Cc2ccc([N+](=O)[O-])o2)C(=O)N(CCc2ccccc2)S(=O)(=O)N1CCc1ccccc1 | 20.3 µM (inactive) | 17.4 µM (inactive) | 17.1 µM (inactive) | 18.7 µM (inactive) | 19.5 µM (inactive) | 50.4 µM (inactive) | > 100 µM (inactive) | 20.2 µM (inactive) | > 100 µM (inactive) | 42.2 µM (inactive) | – | 19.5 µM (inactive) | 27.7 µM (inactive) | > 100 µM (inactive) | 27.4 µM (inactive) | 24.7 µM (inactive) | > 100 µM (inactive) | –
17 | COc1cc2c[n+](C)c3c4cc(OC)c(OC)cc4c(OCCCCCCCCOc4cc5c6cc(OC)c(OC)cc6c[n+](C)c5c5cc(OC)c(OC)cc45)cc3c2cc1OC | 30.6 µM (inactive) | > 100 µM (inactive) | > 100 µM (inactive) | 47.8 µM (inactive) | > 100 µM (inactive) | > 100 µM (inactive) | > 100 µM (inactive) | – | > 100 µM (inactive) | > 100 µM (inactive) | > 100 µM (inactive) | > 100 µM (inactive) | 24.8 µM (inactive) | > 100 µM (inactive) | 22.3 µM (inactive) | > 100 µM (inactive) | > 100 µM (inactive) | > 100 µM (inactive)
